Like-named read-outs stand apart in the source and are kept apart here. Ends that are not written are not given here.
Assays:
Assay in all cases: FP displacement (competition) of FITC-15 AA CRIPT by library peptide, IC50 and Ki
PSG G322A (PSD-95) = settings: for IC50: read-out: IC50 (µM), PSG G322A; for Ki: read-out: Ki (µM), PSG G322A
PSG G335A (PSD-95) = settings: for IC50: read-out: IC50 (µM), PSG G335A; for Ki: read-out: Ki (µM), PSG G335A
PDZ3 (PSD-95) = PDZ3 (PSD-95) (Homo sapiens, UniProt P78352)
PDZ3 (PSD-95), sequence (P78352 313-393 limits assumed): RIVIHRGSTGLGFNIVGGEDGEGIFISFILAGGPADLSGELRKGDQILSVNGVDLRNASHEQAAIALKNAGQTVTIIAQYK

PSG G322A G335A (PSD-95) = settings: for IC50: read-out: IC50 (µM), PSG G322A G335A; for Ki: read-out: Ki (µM), PSG G322A G335A
PSG (PSD-95) = settings: for IC50: read-out: IC50 (µM), PSG
[1] = FP displacement of FITC-15 AA CRIPT probe by acetylated PSD library peptide
[2] = Ki (µM), PDZ3, FP displacement of FITC-15 AA CRIPT probe by acetylated PSD library peptide
[3] = Ki, FP displacement of 5 nM FITC-15 AA CRIPT by non-labeled acetylated peptide, room temperature, Ki from IC50, technical triplicates, PDZ3
[4] = FP displacement of FITC-15 AA CRIPT probe by acetylated PSD library peptide (P-13 to P0 plus extra N-terminal Y)
[5] = FP displacement of 5 nM FITC-15 AA CRIPT by non-labeled acetylated peptide, room temperature, Ki from IC50, technical triplicates, PSG
[6] = read-out: Ki (µM), PSG, FP displacement of FITC-15 AA CRIPT probe by acetylated PSD library peptide
[7] = FP displacement of FITC-15 AA CRIPT probe by PSD library peptide, protein PSG G322A
[8] = FP displacement of FITC-15 AA CRIPT probe by PSD library peptide, protein PSG G335A
[9] = Ki (µM), PDZ3, FP displacement of FITC-15 AA CRIPT probe by PSD library peptide, protein PDZ3
[10] = FP displacement of FITC-15 AA CRIPT probe by PSD library peptide, protein PSG G322A G335A
[11] = FP displacement of FITC-15 AA CRIPT probe by PSD library peptide, protein PSG (wild type)
[12] = read-out: Ki (µM), PSG, FP displacement of FITC-15 AA CRIPT probe by PSD library peptide, protein PSG (wild type)

Molecule	IC50 (PSG G322A (PSD-95); [1]) [µM]	Ki (PSG G322A (PSD-95); [1]) [µM]	IC50 (PSG G335A (PSD-95); [1]) [µM]	Ki (PSG G335A (PSD-95); [1]) [µM]	Ki (PDZ3 (PSD-95); [2]) [µM]	Ki (PDZ3 (PSD-95); [3]) [µM]	IC50 (PSG G322A G335A (PSD-95); [4]) [µM]	Ki (PSG G322A G335A (PSD-95); [1]) [µM]	Ki (PSG (PSD-95); [5]) [µM]	IC50 (PSG (PSD-95); [1]) [µM]	Ki (PSG (PSD-95); [6]) [µM]	Ki (PDZ3 (PSD-95); [9]) [µM]	IC50 (PDZ3 (PSD-95)) [µM]	other results
CC[C@H](C)[C@H](NC(=O)[C@H](CO)NC(=O)[C@H](CCC(N)=O)NC(=O)[C@H](CCCNC(=N)N)NC(=O)[C@H](CCCCN)NC(=O)[C@H](CO)NC(=O)[C@H](CC(=O)O)NC(=O)[C@@H]1CCCN1C(=O)[C@H](Cc1ccc(O)cc1)NC(C)=O)C(=O)N[C@@H](CC(C)C)C(=O)N[C@@H](Cc1ccccc1)C(=O)N[C@@H](CO)C(=O)N[C@H](C(=O)N[C@@H](CCC(=O)O)C(=O)N[C@H](C(=O)O)C(C)C)[C@@H](C)O [BCR]	27	12	33	12	42	< 75	21	7	< 75	110	46	–	–	–
CC(=O)N[C@@H](Cc1ccc(O)cc1)C(=O)N[C@@H](CCC(=O)O)C(=O)N[C@@H](CCC(=O)O)C(=O)N[C@@H](CCC(=O)O)C(=O)N[C@@H](CC(C)C)C(=O)N[C@@H](CCC(N)=O)C(=O)N[C@@H](CC(=O)O)C(=O)N[C@@H](CO)C(=O)N[C@@H](CCCNC(=N)N)C(=O)N[C@H](C(=O)N[C@@H](Cc1ccc(O)cc1)C(=O)N[C@H](C(=O)N[C@@H](CO)C(=O)N[C@@H](CO)C(=O)N[C@@H](CC(C)C)C(=O)O)C(C)C)C(C)C [CAC1C]	–	–	–	–	–	–	–	–	–	–	–	449	–	IC50 (PSG G322A (PSD-95); [7]): 99 µM; Ki (PSG G322A (PSD-95); [7]): 43 µM; IC50 (PSG G335A (PSD-95); [8]): 90 µM; Ki (PSG G335A (PSD-95); [8]): 32 µM; IC50 (PSG G322A G335A (PSD-95); [10]): 82 µM; Ki (PSG G322A G335A (PSD-95); [10]): 28 µM; IC50 (PSG (PSD-95); [11]): 200 µM; Ki (PSG (PSD-95); [12]): 105 µM
CC(=O)N[C@@H](Cc1ccc(O)cc1)C(=O)N[C@@H](C)C(=O)N[C@@H](CO)C(=O)N[C@@H](CC(N)=O)C(=O)N[C@H](C(=O)N[C@@H](CC(N)=O)C(=O)N[C@H](C(=O)N[C@@H](CC(C)C)C(=O)N[C@@H](CC(N)=O)C(=O)N[C@@H](CCCNC(=N)N)C(=O)N[C@@H](CCCCN)C(=O)N[C@H](C(=O)N[C@H](C(=O)N1CCC[C@H]1C(=O)N[C@H](C(=O)O)C(C)C)[C@@H](C)O)[C@@H](C)O)[C@@H](C)O)[C@@H](C)O [CCG8]	15	6	28	10	–	< 75	–	–	< 75	116	49	–	19	–
CC(=O)N[C@@H](Cc1ccc(O)cc1)C(=O)N[C@@H](CO)C(=O)N[C@@H](CC(C)C)C(=O)N[C@@H](CO)C(=O)N[C@@H](CCCCN)C(=O)N[C@@H](Cc1c[nH]cn1)C(=O)N[C@@H](CCC(=O)O)C(=O)N[C@@H](CO)C(=O)N[C@@H](CCC(=O)O)C(=O)N[C@@H](Cc1ccc(O)cc1)C(=O)N[C@@H](CC(N)=O)C(=O)N[C@H](C(=O)N[C@H](C(=O)N[C@@H](CCCNC(=N)N)C(=O)N[C@H](C(=O)O)C(C)C)[C@@H](C)O)[C@@H](C)O [NETO1]	–	45	77	27	75	< 75	63	22	–	239	101	–	182	–
CC(=O)N[C@@H](Cc1ccc(O)cc1)C(=O)N[C@@H](Cc1c[nH]cn1)C(=O)N1CCC[C@H]1C(=O)N[C@@H](Cc1c[nH]cn1)C(=O)N1CCC[C@H]1C(=O)N[C@@H](Cc1c[nH]cn1)C(=O)N1CCC[C@H]1C(=O)N[C@@H](Cc1c[nH]cn1)C(=O)N[C@@H](CO)C(=O)N[C@@H](Cc1c[nH]cn1)C(=O)N[C@@H](CO)C(=O)N[C@H](C(=O)N[C@H](C(=O)N[C@@H](CCCNC(=N)N)C(=O)N[C@H](C(=O)O)C(C)C)[C@@H](C)O)[C@@H](C)O [NLGN1]	–	–	–	–	–	< 75	–	–	< 75	–	–	72	–	IC50 (PSG G322A (PSD-95); [7]): 56 µM; Ki (PSG G322A (PSD-95); [7]): 24 µM; Ki (PSG G335A (PSD-95); [8]): 9 µM; IC50 (PSG G322A G335A (PSD-95); [10]): 22 µM; Ki (PSG G322A G335A (PSD-95); [10]): 7.42 µM; IC50 (PSG (PSD-95); [11]): 118 µM; Ki (PSG (PSD-95); [12]): 61 µM
CC(=O)N[C@@H](Cc1ccc(O)cc1)C(=O)N[C@@H](CC(N)=O)C(=O)N[C@@H](CO)C(=O)N[C@H](C(=O)N[C@@H](CC(N)=O)C(=O)N[C@@H](CC(C)C)C(=O)N1CCC[C@H]1C(=O)N[C@@H](Cc1c[nH]cn1)C(=O)NCC(=O)N[C@@H](Cc1c[nH]cn1)C(=O)N[C@@H](CO)C(=O)N[C@H](C(=O)N[C@H](C(=O)N[C@@H](CCCNC(=N)N)C(=O)N[C@H](C(=O)O)C(C)C)[C@@H](C)O)[C@@H](C)O)[C@@H](C)O [NLGNX]	72	31	39	14	40	< 75	43	15	–	184	78	–	62	–
Ac-YDSIEIYIPEAQTRL [DLGP2]	–	–	–	–	–	–	–	–	–	–	–	165	396	–
Ac-YPPSSPTLSVSSTSL [KLH17]	1550	671	1430	510	–	–	997	345	–	1590	679	–	–	–

Continued, in another order:

IC50 (PSG G322A (PSD-95); [1]) [µM]	Ki (PSG G322A (PSD-95); [1]) [µM]	IC50 (PSG G335A (PSD-95); [1]) [µM]	Ki (PSG G335A (PSD-95); [1]) [µM]	Ki (PDZ3 (PSD-95); [2]) [µM]	Ki (PDZ3 (PSD-95); [3]) [µM]	IC50 (PSG G322A G335A (PSD-95); [4]) [µM]	Ki (PSG G322A G335A (PSD-95); [1]) [µM]	Ki (PSG (PSD-95); [5]) [µM]	IC50 (PSG (PSD-95); [1]) [µM]	Ki (PSG (PSD-95); [6]) [µM]	Ki (PDZ3 (PSD-95); [9]) [µM]	IC50 (PDZ3 (PSD-95)) [µM]	Molecule	other results
–	–	–	–	–	–	–	–	–	–	–	172	–	CC[C@H](C)[C@H](NC(=O)[C@H](CO)NC(=O)[C@@H]1CCCN1C(=O)[C@H](CCSC)NC(=O)[C@H](CCCCN)NC(=O)[C@H](CCCCN)NC(=O)[C@H](Cc1ccc(O)cc1)NC(=O)[C@@H](NC(=O)[C@H](CCCNC(=N)N)NC(=O)[C@H](CCCNC(=N)N)NC(=O)[C@H](Cc1ccc(O)cc1)NC(C)=O)C(C)C)C(=O)N[C@@H](CCC(=O)O)C(=O)N[C@@H](CO)C(=O)N[C@@H](CC(=O)O)C(=O)N[C@H](C(=O)O)C(C)C [NMDE1]	IC50 (PSG G322A (PSD-95); [7]): 153 µM; Ki (PSG G322A (PSD-95); [7]): 66 µM; IC50 (PSG G335A (PSD-95); [8]): 267 µM; Ki (PSG G335A (PSD-95); [8]): 95 µM; IC50 (PSG G322A G335A (PSD-95); [10]): 156 µM; Ki (PSG G322A G335A (PSD-95); [10]): 54 µM; IC50 (PSG (PSD-95); [11]): 463 µM; Ki (PSG (PSD-95); [12]): 243 µM
133	57	233	83	27	< 75	76	26	–	427	181	–	67	CC[C@H](C)[C@H](NC(=O)[C@@H]1CCCN1C(=O)[C@H](Cc1ccc(O)cc1)NC(C)=O)C(=O)NCC(=O)NCC(=O)N[C@@H](CO)C(=O)N[C@@H](CC(C)C)C(=O)N[C@@H](CC(N)=O)C(=O)N[C@@H](CO)C(=O)N[C@H](C(=O)N[C@H](C(=O)N[C@@H](CC(=O)O)C(=O)N[C@@H](CO)C(=O)N[C@@H](C)C(=O)N[C@@H](CC(C)C)C(=O)O)[C@@H](C)O)[C@@H](C)O [RGS14]	–
21	9	24	8.45	23	< 75	12	4	< 75	67	28	–	58	CC[C@H](C)[C@H](NC(=O)[C@H](Cc1ccccc1)NC(=O)[C@H](CO)NC(=O)[C@H](CCCNC(=N)N)NC(=O)[C@H](CCCCN)NC(=O)[C@@H]1CCCN1C(=O)[C@H](CCCCN)NC(=O)[C@H](C)NC(=O)[C@H](C)NC(=O)[C@@H](NC(=O)[C@H](Cc1ccc(O)cc1)NC(C)=O)[C@@H](C)O)C(=O)N[C@@H](CCC(=O)O)C(=O)N[C@@H](CO)C(=O)N[C@@H](CC(N)=O)C(=O)N[C@H](C(=O)O)C(C)C [TANC1]	–
503	218	764	272	–	–	536	185	–	1740	743	–	–	Ac-YLTGAPLATSDETSI [SEM4F]	–
834	362	–	–	548	–	1320	457	–	2160	923	–	–	Ac-YQARRGKKKSGSLVL [RHOA]	–

Source: PMC9490041, “Determinants of affinity, specificity, and phase separation in a supramodule from Post-synaptic density protein 95” (iScience, 2022)
